Literature values in patent US20190167601A1, “APPARATUS AND METHOD FOR ZERO ORDER DRUG DELIVERY FROM MULTILAYER AMPHIPHILIC CO-NETWORKS” (The University of Akron, priority 2016, published 2019).
Where a name gives a salt, the structure may show the parent alone.

Row | Structure (SMILES) | maximum drug solubility in water
1 | CC(C)OC(=O)CCC/C=C\C[C@@H]1[C@@H](CC[C@@H](O)CCc2ccccc2)[C@H](O)C[C@@H]1O [Latanoprost] | 8000 µg/mL
2 | COc1c(N2C[C@@H]3CCCN[C@@H]3C2)c(F)cc2c(=O)c(C(=O)O)cn(C3CC3)c12 [Moxifloxacin Hydrochloride] | 168 µg/mL
